{"source": "patent US20040259818A1", "about": "“Glucoronide adduct as gaba ligand” (priority 2001, published 2004)", "key": {"[1]": {"molecular_target": "T1, α3 subunit of the human GABAA receptor relative to α1 subunit (Homo sapiens, UniProt P18507+P34903)", "T1 construct": "expressed in transfected cells; host or cells: stably transfected eukaryotic cells, typically mouse Ltk- fibroblasts", "T1 sequence (P34903 29-492)": "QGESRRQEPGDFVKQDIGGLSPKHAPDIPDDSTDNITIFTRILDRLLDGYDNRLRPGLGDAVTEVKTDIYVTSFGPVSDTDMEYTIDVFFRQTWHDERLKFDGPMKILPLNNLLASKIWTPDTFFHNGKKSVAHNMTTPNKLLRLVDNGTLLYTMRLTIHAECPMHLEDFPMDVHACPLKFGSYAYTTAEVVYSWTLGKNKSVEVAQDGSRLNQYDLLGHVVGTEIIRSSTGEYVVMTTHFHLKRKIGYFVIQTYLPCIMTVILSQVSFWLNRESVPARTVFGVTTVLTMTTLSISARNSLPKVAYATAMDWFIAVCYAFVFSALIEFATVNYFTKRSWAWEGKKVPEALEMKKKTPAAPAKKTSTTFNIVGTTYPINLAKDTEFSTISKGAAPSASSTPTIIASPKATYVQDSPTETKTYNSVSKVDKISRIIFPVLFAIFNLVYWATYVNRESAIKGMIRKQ", "T1 sequence (P28472 26-473 partner)": "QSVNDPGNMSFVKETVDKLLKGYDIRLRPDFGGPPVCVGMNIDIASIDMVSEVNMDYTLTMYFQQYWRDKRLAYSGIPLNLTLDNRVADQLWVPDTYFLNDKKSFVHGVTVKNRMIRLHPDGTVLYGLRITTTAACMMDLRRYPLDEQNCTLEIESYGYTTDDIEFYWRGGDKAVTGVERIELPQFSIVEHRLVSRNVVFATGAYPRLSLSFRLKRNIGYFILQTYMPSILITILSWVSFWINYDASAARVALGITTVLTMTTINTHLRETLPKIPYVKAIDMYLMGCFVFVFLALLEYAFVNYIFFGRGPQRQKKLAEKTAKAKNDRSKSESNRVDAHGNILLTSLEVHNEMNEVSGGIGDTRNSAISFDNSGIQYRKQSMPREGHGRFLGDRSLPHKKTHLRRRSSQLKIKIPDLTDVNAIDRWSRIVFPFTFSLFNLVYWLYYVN", "T1 sequence (P18507 40-467 limits assumed)": "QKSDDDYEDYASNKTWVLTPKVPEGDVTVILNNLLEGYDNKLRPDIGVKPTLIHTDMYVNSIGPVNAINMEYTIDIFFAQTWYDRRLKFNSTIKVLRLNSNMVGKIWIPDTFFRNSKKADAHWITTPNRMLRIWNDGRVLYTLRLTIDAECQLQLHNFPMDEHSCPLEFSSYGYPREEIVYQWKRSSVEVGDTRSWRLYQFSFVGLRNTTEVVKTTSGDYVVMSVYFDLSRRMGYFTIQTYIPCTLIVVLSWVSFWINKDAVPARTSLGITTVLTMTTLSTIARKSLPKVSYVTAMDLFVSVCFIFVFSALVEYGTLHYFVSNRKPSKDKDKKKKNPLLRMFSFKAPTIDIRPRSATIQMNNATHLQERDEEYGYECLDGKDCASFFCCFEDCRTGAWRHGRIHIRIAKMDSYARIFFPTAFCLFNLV", "experiment": "potentiation of the GABA EC20 response in stably transfected recombinant cell lines", "type": "cell-based", "settings": "stably transfected recombinant cell lines expressing α3 vs α1 subunit of the human GABAA receptor", "source_text": "The potentiation of the GABA EC20 response in stably transfected cell lines expressing the α3 and α1 subunits of the human GABAA receptor can conveniently be measured by procedures analogous to the protocol described in Wafford et al., Mol. Pharmacol., 1996, 50, 670-678. The procedure will suitably be carried out utilising cultures of stably transfected eukaryotic cells, typically of stably transfected mouse Ltk^− fibroblast cells."}, "[2]": {"molecular_target": "α2 and/or α3 subunit of the human GABAA receptor", "experiment": "[3H]-flumazenil displacement binding assay, α2 and/or α3 subunit", "settings": "displacement of [3H]-flumazenil; human GABAA receptors stably expressed in Ltk- cells; read-out: binding affinity (Ki) for the α2 and/or α3 subunit", "procedure": "Assay buffer: 10 mM KH2PO4, 100 mM KCl, pH 7.4 at room temperature.\nFlunitrazepam 100 μM in assay buffer.\nCells resuspended in assay buffer (1 tray to 10 ml).\nSupernatant is removed from cells. PBS (approximately 20 ml) is added. The cells are scraped and placed in a 50 ml centrifuge tube. The procedure is repeated with a further 10 ml of PBS to ensure that most of the cells are removed. The cells are pelleted by centrifuging for 20 min at 3000 rpm in a benchtop centrifuge, and then frozen if desired. The pellets are resuspended in 10 ml of buffer per tray (25 cm×25 cm) of cells.\nCan be carried out in deep 96-well plates or in tubes. Each tube contains:\n50 μl of buffer or solvent carrier (e.g. 10% DMSO) if compounds are dissolved in 10% DMSO (total); test compound or flunitrazepam (to determine non-specific binding), 10 μM final concentration.\nAssays are incubated for 1 hour at 40° C., then filtered using either a Tomtec or Brandel cell harvester onto GF/B filters followed by 3×3 ml washes with ice cold assay buffer. Filters are dried and counted by liquid scintillation counting. […] Binding parameters are determined by non-linear least squares regression analysis, from which the inhibition constant Ki can be calculated for each test compound."}, "[3]": {"experiment": "brain penetration inferred from behavioural effects", "type": "in vivo", "settings": "inferred because it elicits behavioural effects", "source_text": "Since it elicits behavioural effects, the triazolo-pyridazine derivative of the invention plainly is brain-penetrant; in other words, it is capable of crossing the so-called “blood-brain barrier”. Advantageously, the triazolo-pyridazine derivative of the invention is capable of exerting its beneficial therapeutic action following administration by the oral route."}, "[4]": {"experiment": "conditioned suppression of drinking test", "settings": "in vivo"}, "elevated plus maze test": {"experiment": "elevated plus maze test", "settings": "in vivo"}, "[5]": {"experiment": "response sensitivity (chain-pulling) test", "settings": "in vivo"}, "α3β3γ2 GABAA/BzR": {"molecular_target": "α3β3γ2 GABAA/BzR (Homo sapiens, UniProt P18507+P34903)", "sequence (P18507 whole entry, looked up)": "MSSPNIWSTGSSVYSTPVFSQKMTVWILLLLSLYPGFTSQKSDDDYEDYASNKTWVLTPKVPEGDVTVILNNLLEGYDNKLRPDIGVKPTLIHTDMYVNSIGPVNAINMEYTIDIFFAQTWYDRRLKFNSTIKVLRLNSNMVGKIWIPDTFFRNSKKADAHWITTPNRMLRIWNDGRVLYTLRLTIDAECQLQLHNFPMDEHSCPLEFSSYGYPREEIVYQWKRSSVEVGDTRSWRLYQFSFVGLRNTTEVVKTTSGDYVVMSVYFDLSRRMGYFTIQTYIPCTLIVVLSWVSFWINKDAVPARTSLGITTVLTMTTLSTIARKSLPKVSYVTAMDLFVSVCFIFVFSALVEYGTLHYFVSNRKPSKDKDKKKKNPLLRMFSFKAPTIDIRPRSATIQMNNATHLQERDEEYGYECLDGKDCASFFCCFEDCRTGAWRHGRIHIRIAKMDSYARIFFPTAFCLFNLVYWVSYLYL", "sequence (P34903 whole entry, looked up)": "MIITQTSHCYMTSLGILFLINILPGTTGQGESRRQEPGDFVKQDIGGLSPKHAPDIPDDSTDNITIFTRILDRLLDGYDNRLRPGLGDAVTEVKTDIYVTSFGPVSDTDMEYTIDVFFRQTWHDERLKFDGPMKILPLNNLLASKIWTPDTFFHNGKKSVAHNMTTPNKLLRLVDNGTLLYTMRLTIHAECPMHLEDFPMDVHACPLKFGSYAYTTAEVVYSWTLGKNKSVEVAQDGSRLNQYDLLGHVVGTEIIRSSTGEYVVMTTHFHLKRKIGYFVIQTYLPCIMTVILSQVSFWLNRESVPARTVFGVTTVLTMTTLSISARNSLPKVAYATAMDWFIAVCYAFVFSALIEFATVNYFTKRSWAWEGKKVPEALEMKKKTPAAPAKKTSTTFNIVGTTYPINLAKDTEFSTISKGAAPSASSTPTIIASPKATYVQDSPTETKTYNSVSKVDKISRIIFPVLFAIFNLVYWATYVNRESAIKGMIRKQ", "experiment": "biochemical"}}, "data": [{"smiles": "CCn1ncnc1COc1nn2c(-c3ccccc3F)nnc2cc1C(C)(C)C", "note": "[triazolo-pyridazine derivative, 7-(1,1-dimethylethyl)-6-(2-ethyl-2H-1,2,4-triazol-3-ylmethoxy)-3-(2-fluorophenyl)-1,2,4-triazolo[4,3-b]pyridazine]", "values": [{"measurement": "potentiation of the GABA EC20 response, α3 relative to α1", "setting": "[1]", "result": "selective potentiation"}, {"measurement": "Ki", "setting": "[2]", "result": "< 1", "unit": "nM"}, {"measurement": "brain penetration (crossing the blood-brain barrier)", "setting": "[3]", "result": "brain-penetrant"}, {"measurement": "anxiolytic activity, conditioned suppression of drinking", "setting": "[4]", "result": "positive response"}, {"measurement": "anxiolytic activity, elevated plus maze", "setting": "elevated plus maze test", "result": "positive response"}, {"measurement": "sedation, response sensitivity (chain-pulling) test", "setting": "[5]", "result": "substantially non-sedating"}, {"measurement": "Ki", "setting": "α3β3γ2 GABAA/BzR", "result": "< 1", "unit": "nM"}]}]}
